US20230114728A1 (Venatorx Pharmaceuticals, Inc., priority 2019, published 2023)
Values after ≈ are worked out from the molar mass of the structure shown.

Tests used:
Assay in all cases: Broth microdilution MIC in iron-depleted CAMHB (IDM)
Assay type in all cases: cell-based
A. baumannii ATCC 17978 = settings: Acinetobacter baumannii, ATCC17978, read-out: Minimum Inhibitory Concentration, ATCC 17978
Summary of the method: (§1)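 MIC read by eye as the lowest concentration with no bacterial growth, following CLSI microdilution in iron-depleted cation-adjusted Mueller-Hinton broth at pH 7.3. Starting inoculum 2-8×10^5 CFU/mL; incubation 37° C, 16-20 h for Pseudomonas, 20-24 h for Acinetobacter.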

P. aeruginosa ATCC 27853 = settings: Pseudomonas aeruginosa, ATCC27853, read-out: Minimum Inhibitory Concentration, P. aeruginosa ATCC 27853
Summary of the method: as §1

[1] = test system: P. aeruginosa CDC-0054 producing VIM-4, OXA-50, and PAO; settings: Pseudomonas aeruginosa, read-out: Minimum Inhibitory Concentration, P. aeruginosa CDC-0054
Summary of the method: as §1

A. baumannii ATCC 19606 = settings: Acinetobacter baumannii, ATCC19606, read-out: Minimum Inhibitory Concentration, ATCC 19606
Summary of the method: as §1

[2] = test system: A. baumannii CDC-0033 producing NDM-1, and OXA-94; settings: Acinetobacter baumannii, read-out: Minimum Inhibitory Concentration, CDC-0033
Summary of the method: as §1

[3] = test system: A. baumannii CDC-0083 producing NDM-1, PER-7, OXA-23, and OXA-69; settings: Acinetobacter baumannii, read-out: Minimum Inhibitory Concentration, CDC-0083
Summary of the method: as §1

P. aeruginosa ATCC 35151 = settings: Pseudomonas aeruginosa, ATCC35151; iron-depleted MHB (IDM); hyper-permeable strain; read-out: Minimum Inhibitory Concentration, P. aeruginosa ATCC 35151
Summary of the method: as §1

[4] = test system: A. baumannii CDC-0036 OXA-65, and OXA-24; settings: Acinetobacter baumannii, read-out: Minimum Inhibitory Concentration, CDC-0036
Summary of the method: as §1

[5] = test system: P. aeruginosa (ΔmexAB-oprM); settings: Pseudomonas aeruginosa, read-out: Minimum Inhibitory Concentration, P. aeruginosa ΔmexAB-OprM
Summary of the method: as §1

Structure (SMILES) | MIC (A. baumannii ATCC 17978) | MIC (P. aeruginosa ATCC 27853) | MIC [1] | MIC (A. baumannii ATCC 19606) | MIC [2] | MIC [3] | MIC (P. aeruginosa ATCC 35151) | MIC [4] | MIC [5]
CCN1CCN(C(=O)N[C@@H](C(=O)N[C@H]2Cc3ccc(F)c(C(=O)O)c3OB2O)c2ccc(O)c(O)c2)C(=O)C1=O [Example 211, (R)-3-((R)-2-(3,4-dihydroxyphenyl)-2-(4-ethyl-2,3-dioxopiperazine-1-carboxamido)acetamido)-7-fluoro-2-hydroxy-3,4-dihydro-2H-benzo[e][1,2]oxaborinine-8-carboxylic acid] | 2 to 4 µg/mL (≈ 3.58 to 7.16 µM) | 8 to 16 µg/mL (≈ 14.3 to 28.7 µM) | 8 to 16 µg/mL (≈ 14.3 to 28.7 µM) | 2 to 4 µg/mL (≈ 3.58 to 7.16 µM) | 32 to 64 µg/mL (≈ 57.3 to 115 µM) | > 128 µg/mL | 0.25 µg/mL (≈ 0.448 µM) | 8 to 16 µg/mL (≈ 14.3 to 28.7 µM) | 0.25 µg/mL (≈ 0.448 µM)
Nc1nc(C(NC(=O)N2CCN(CCNC(=O)c3ccc(O)c(O)c3Cl)C(=O)C2=O)C(=O)N[C@H]2Cc3ccc(F)c(C(=O)O)c3OB2O)c(F)s1 (stereo partly drawn) [Example 4, (3R)-3-(2-(2-amino-5-fluorothiazol-4-yl)-2-(4-(2-(2-chloro-3,4-dihydroxybenzamido)ethyl)-2,3-dioxopiperazine-1-carboxamido)acetamido)-7-fluoro-2-hydroxy-3,4-dihydro-2H-benzo[e][1,2]oxaborinine-8-carboxylic acid] | 0.25 µg/mL (≈ 0.333 µM) | 0.25 µg/mL (≈ 0.333 µM) | 0.5 to 1 µg/mL (≈ 0.665 to 1.33 µM) | 0.5 to 1 µg/mL (≈ 0.665 to 1.33 µM) | 32 to 64 µg/mL (≈ 42.6 to 85.1 µM) | 32 to 64 µg/mL (≈ 42.6 to 85.1 µM) | 0.25 µg/mL (≈ 0.333 µM) | 32 to 64 µg/mL (≈ 42.6 to 85.1 µM) | 0.25 µg/mL (≈ 0.333 µM)
NCCCN1CCN(C(=O)N[C@@H](C(=O)N[C@H]2Cc3cc(Cl)c(F)c(C(=O)O)c3OB2O)c2c(F)cc(O)c(O)c2Cl)C(=O)C1=O [Example 190, (R)-3-((R)-2-(4-(3-aminopropyl)-2,3-dioxopiperazine-1-carboxamido)-2-(2-chloro-6-fluoro-3,4-dihydroxyphenyl)acetamido)-6-chloro-7-fluoro-2-hydroxy-3,4-dihydro-2H-benzo[e][1,2]oxaborinine-8-carboxylic acid] | 8 to 16 µg/mL (≈ 11.9 to 23.7 µM) | 2 to 4 µg/mL (≈ 2.97 to 5.93 µM) | 8 to 16 µg/mL (≈ 11.9 to 23.7 µM) | > 128 µg/mL | > 128 µg/mL | > 128 µg/mL | 0.5 to 1 µg/mL (≈ 0.742 to 1.48 µM) | > 128 µg/mL | 0.25 µg/mL (≈ 0.371 µM)
CS(=O)(=O)N1CCN(C(=O)NC(C(=O)N[C@H]2Cc3ccc(F)c(C(=O)O)c3OB2O)c2c(Cl)cc(O)c(O)c2F)C1=O (stereo partly drawn) [Example 208, (3R)-3-(2-(6-chloro-2-fluoro-3,4-dihydroxyphenyl)-2-(3-(methylsulfonyl)-2-oxoimidazolidine-1-carboxamido)acetamido)-7-fluoro-2-hydroxy-3,4-dihydro-2H-benzo[e][1,2]oxaborinine-8-carboxylic acid] | 0.5 to 1 µg/mL (≈ 0.79 to 1.58 µM) | 2 to 4 µg/mL (≈ 3.16 to 6.32 µM) | 32 to 64 µg/mL (≈ 50.6 to 101 µM) | 2 to 4 µg/mL (≈ 3.16 to 6.32 µM) | 32 to 64 µg/mL (≈ 50.6 to 101 µM) | > 128 µg/mL | 0.25 µg/mL (≈ 0.395 µM) | 8 to 16 µg/mL (≈ 12.6 to 25.3 µM) | 2 to 4 µg/mL (≈ 3.16 to 6.32 µM)
O=C(NCCN1CCN(C(=O)NC(C(=O)N[C@H]2Cc3ccc(F)c(C(=O)O)c3OB2O)c2ncc(O)cc2F)C(=O)C1=O)c1c(F)cc(O)c(O)c1Cl (stereo partly drawn) [Example 5, (3R)-3-(2-(4-(2-(2-chloro-6-fluoro-3,4-dihydroxybenzamido)ethyl)-2,3-dioxopiperazine-1-carboxamido)-2-(3-fluoro-5-hydroxypyridin-2-yl)acetamido)-7-fluoro-2-hydroxy-3,4-dihydro-2H-benzo[e][1,2]oxaborinine-8-carboxylic acid] | 0.25 µg/mL (≈ 0.327 µM) | 0.25 µg/mL (≈ 0.327 µM) | 0.25 µg/mL (≈ 0.327 µM) | 0.5 to 1 µg/mL (≈ 0.654 to 1.31 µM) | 2 to 4 µg/mL (≈ 2.61 to 5.23 µM) | 32 to 64 µg/mL (≈ 41.8 to 83.7 µM) | 0.25 µg/mL (≈ 0.327 µM) | 32 to 64 µg/mL (≈ 41.8 to 83.7 µM) | 0.25 µg/mL (≈ 0.327 µM)
C[C@H]1CN(CCNC(=O)c2ccc(O)c(O)c2Cl)C(=O)C(=O)N1C(=O)NC(C(=O)N[C@H]1Cc2cccc(C(=O)O)c2OB1O)c1ncc(O)cc1F (stereo partly drawn) [Example 2, (3R)-3-(2-((S)-4-(2-(2-chloro-3,4-dihydroxybenzamido)ethyl)-6-methyl-2,3-dioxopiperazine-1-carboxamido)-2-(3-fluoro-5-hydroxypyridin-2-yl)acetamido)-2-hydroxy-3,4-dihydro-2H-benzo[e][1,2]oxaborinine-8-carboxylic acid] | 0.5 to 1 µg/mL (≈ 0.673 to 1.35 µM) | 2 to 4 µg/mL (≈ 2.69 to 5.38 µM) | 2 to 4 µg/mL (≈ 2.69 to 5.38 µM) | 0.5 to 1 µg/mL (≈ 0.673 to 1.35 µM) | 8 to 16 µg/mL (≈ 10.8 to 21.5 µM) | 8 to 16 µg/mL (≈ 10.8 to 21.5 µM) | 0.25 µg/mL (≈ 0.337 µM) | 32 to 64 µg/mL (≈ 43.1 to 86.2 µM) | 0.25 µg/mL (≈ 0.337 µM)
CCN1CCN(C(=O)N[C@H](C(=O)N[C@H]2Cc3ccc(F)c(C(=O)O)c3OB2O)c2ccc(O)c(O)c2)C(=O)C1=O [Example 210, (R)-3-((S)-2-(3,4-dihydroxyphenyl)-2-(4-ethyl-2,3-dioxopiperazine-1-carboxamido)acetamido)-7-fluoro-2-hydroxy-3,4-dihydro-2H-benzo[e][1,2]oxaborinine-8-carboxylic acid] | > 128 µg/mL | > 128 µg/mL | > 128 µg/mL | > 128 µg/mL | > 128 µg/mL | > 128 µg/mL | 2 to 4 µg/mL (≈ 3.58 to 7.16 µM) | > 128 µg/mL | 8 to 16 µg/mL (≈ 14.3 to 28.7 µM)
